Reference: patent publication US12691111B2, “SETD2 inhibitors and related methods and uses, including combination therapies” (EPIZYME, INC., priority 2020, dated 2026)

Legend:
KMS-11 = assay: 7-day co-treatment combination study, CellTiter-Glo, Loewe Volume; conditions: for Combination effect (Loewe Volume class) of Cpd. No. 15 with combination partner: KMS-11 multiple myeloma cells, 7-day co-treatment with Cpd. No. 15
KMS-28-BM = assay: as above; assay type: cell-based; conditions: KMS-28-BM multiple myeloma cells, 7-day co-treatment with Cpd. No. 15
Description: (§1) Multiple myeloma (MM) and mantle cell lymphoma (MCL) Cell line cultures in log-linear growth rate were treated with combinations of Cpd. No. 15 and combination partners according to a co-treatment model. […] No. 15 and the combination partner. […] Each combination was tested in quadruplicate wells. The final concentration of DMSO (vehicle) in the assay was 0.1% v/v. Fifty microliters of cell line suspension were directly dispensed to the assay-ready plates with an automated multichannel dispenser on to 384-well assay-ready plates. Assay plates were incubated for seven days in a humidified atmosphere of 5% CO2 at 37° C. Quantification of the effect of single agents or combinations on cell viability was performed through measurement of cellular adenosine triphosphate (ATP) using a CellTiter-Glo® (Promega, MadisonWIs.) Luminescent Cell Viability Assay. Luminescence was detected using a SpectraMax M5 microplate reader (Molecular Devices, Sunnyvale, CA). Concentration response plots were generated in GraphPad Prism version 7.0 for Windows, GraphPad Software, (La Jolla, CA) and curves fitted to a four-parameter logistic model with variable slope. Percent of inhibition was calculated at each treatment concentration.
(§2) The results of these combinations are summarized in Tables A and B (multiple myeloma cell lines), and Tables C and D (mantle cell lymphoma cell lines).

L363 = assay: as above; assay type: cell-based; conditions: L363 multiple myeloma cells, 7-day co-treatment with Cpd. No. 15
Description: as §1, §2

KMS34 = assay: as above; assay type: cell-based; conditions: KMS34 multiple myeloma cells, 7-day co-treatment with Cpd. No. 15
Description: as §1, §2

MM1.S = assay: as above; assay type: cell-based; conditions: MM1.S multiple myeloma cells, 7-day co-treatment with Cpd. No. 15
Description: as §1, §2

RPMI-8226 = assay: as above; assay type: cell-based; conditions: RPMI-8226 multiple myeloma cells, 7-day co-treatment with Cpd. No. 15
Description: as §1, §2

NCI-H929 = assay: as above; assay type: cell-based; conditions: NCI-H929 multiple myeloma cells, 7-day co-treatment with Cpd. No. 15
Description: as §1, §2

KARPAS422 = assay: Pre-treatment model combination study (4 days pre-treatment, 3 days co-treatment), CellTiter-Glo, Loewe Volume; assay type: cell-based; conditions: KARPAS422 diffuse large B-cell lymphoma cells, 4 days Cpd. No. 15 pre-treatment then 3 days co-treatment
Description: (§3) Diffuse large B-cell lymphoma cells were seeded into flasks and pre-treated with several concentrations of Cpd. No. 15 or DMSO. Cells were then split adjusted to initial density, replated and co-treated Cpd. No. 15 and a second agent of interest using the HP D300 digital dispenser (Tecan Group, Mannedorf, Switzerland) in tissue culture treated solid white 384-well plates for additional 3 days. […] After 3 days cotreatment, cell viability was measured via ATP content using CellTiter-Glo® (Promega, Madison, WI) and luminescence was detected using a SpectraMax M5 microplate reader (Molecular Devices, Sunnyvale, CA).
(§4) Diffuse large B-cell lymphoma (DLBCL) cell line cultures in log-linear growth rate were treated with combinations of Cpd. No. 15 and combination partners according to a pre-treatment model. Cells were seeded first into 8 flasks and pre-treated with 7 different concentrations of Cpd. […] Cells were harvested from each flask and re-seeded onto the corresponding 384-well plate with the same concentration of Cpd. No. 15. and 9 concentrations of its combination partner in triplicate wells. The final concentration of DMSO (vehicle) in the assay was 0.1% v/v. Fifty microliters of cell line(s) suspension were directly dispensed to the assay-ready plates with an automated multichannel dispenser on to 384-well assay-ready plates. Assay plates were incubated for three days in a humidified atmosphere of 5% CO2 at 37° C. Quantification of the effect of single agents or combinations on cell viability was performed through measurement of cellular adenosine triphosphate (ATP) using CellTiter-Glo® (Promega, Madison, WI). Luminescence was detected using a SpectraMax M5 microplate reader (Molecular Devices, Sunnyvale, CA). Concentration response plots were generated in GraphPad Prism version 8.0 for Windows, GraphPad Software, (La Jolla, CA) and curves fitted to a four-parameter logistic model with variable slope. Percent of inhibition was calculated at each treatment concentration.

WSUDLCL2 = assay: as above; assay type: cell-based; conditions: WSUDLCL2 diffuse large B-cell lymphoma cells, 4 days Cpd. No. 15 pre-treatment then 3 days co-treatment
Description: as §3, §4

SUDHL-6 = assay: as above; assay type: cell-based; conditions: SUDHL-6 diffuse large B-cell lymphoma cells, 4 days Cpd. No. 15 pre-treatment then 3 days co-treatment
Description: as §3, §4

SUDHL-2 = assay: as above; assay type: cell-based; conditions: SUDHL-2 diffuse large B-cell lymphoma cells, 4 days Cpd. No. 15 pre-treatment then 3 days co-treatment
Description: as §3, §4

REC1 = assay: 7-day co-treatment combination study, CellTiter-Glo, Loewe Volume; assay type: cell-based; conditions: REC1 mantle cell lymphoma cells, 7-day co-treatment with Cpd. No. 15
Description: as §1, §2

Z138 = assay: as above; assay type: cell-based; conditions: Z138 mantle cell lymphoma cells, 7-day co-treatment with Cpd. No. 15
Description: as §1, §2

JVM2 = assay: as above; assay type: cell-based; conditions: JVM2 mantle cell lymphoma cells, 7-day co-treatment with Cpd. No. 15
Description: as §1, §2

MAVER1 = assay: as above; assay type: cell-based; conditions: MAVER1 mantle cell lymphoma cells, 7-day co-treatment with Cpd. No. 15
Description: as §1, §2

JEKO1 = assay: as above; assay type: cell-based; conditions: JEKO1 mantle cell lymphoma cells, 7-day co-treatment with Cpd. No. 15
Description: as §1, §2

MINO = assay: as above; assay type: cell-based; conditions: MINO mantle cell lymphoma cells, 7-day co-treatment with Cpd. No. 15
Description: as §1, §2

GRANTA519 = assay: as above; assay type: cell-based; conditions: GRANTA519 mantle cell lymphoma cells, 7-day co-treatment with Cpd. No. 15
Description: as §1, §2

Compound	Combination effect (Loewe Volume class) of Cpd. No. 15 with combination partner (KMS-11)	Combination effect (Loewe Volume class) of Cpd. No. 15 with combination partner (KMS-28-BM)	Combination effect (Loewe Volume class) of Cpd. No. 15 with combination partner (L363)	Combination effect (Loewe Volume class) of Cpd. No. 15 with combination partner (KMS34)	Combination effect (Loewe Volume class) of Cpd. No. 15 with combination partner (MM1.S)	Combination effect (Loewe Volume class) of Cpd. No. 15 with combination partner (RPMI-8226)	Combination effect (Loewe Volume class) of Cpd. No. 15 with combination partner (NCI-H929)	other results
Cc1nc2cccc(N)c2c(=O)n1C1CCC(=O)NC1=O (centres unmarked) [CC-122]	Synergy (VLoewe>1: synergy)	Additivity (between 1 and −1: additivity)	Additivity (between 1 and −1: additivity)	Synergy (VLoewe>1: synergy)	Additivity (between 1 and −1: additivity)	Additivity (between 1 and −1: additivity)	Synergy (VLoewe>1: synergy)	–
CC(=O)N1CCN([C@H]2CCC[C@@H](NC(=O)c3cc4c(F)ccc(C)c4[nH]3)C2)CC1 [Cpd. No. 15, N-((1R,3S)-3-(4-acetylpiperazin-1-yl)cyclohexyl)-4-fluoro-7-methyl-1H-indole-2-carboxamide]	–	–	–	–	–	–	–	anti-proliferative activity of Cpd. No. 15 combined with pomalidomide (KMS-11; KMS-11 cells, 7-day co-treatment study, combined with pomalidomide (FIG. 3)): synergistic
C[C@@H]1C[C@H]2[C@@H]3CCC4=CC(=O)C=C[C@]4(C)[C@@]3(F)[C@@H](O)C[C@]2(C)[C@@]1(O)C(=O)CO [Dexamethasone, dexamethasone]	Synergy (VLoewe>1: synergy)	Additivity (between 1 and −1: additivity)	Synergy (VLoewe>1: synergy)	Synergy (VLoewe>1: synergy)	Additivity (between 1 and −1: additivity)	Synergy (VLoewe>1: synergy)	Synergy (VLoewe>1: synergy)	–
CCN(c1cc(C#CCN2CCOCC2)cc(C(=O)NCc2c(C)cc(C)[nH]c2=O)c1C)[C@H]1CC[C@H](N(C)CCOC)CC1 [EPZ-11989]	Additivity (between 1 and −1: additivity)	Additivity (between 1 and −1: additivity)	–	–	–	–	No Effect	–
Cc1[nH]c2ccccc2c1CCNCc1ccc(/C=C/C(=O)NO)cc1 [Panobinostat, panobinostat]	Additivity (between 1 and −1: additivity)	Additivity (between 1 and −1: additivity)	Additivity (between 1 and −1: additivity)	Synergy (VLoewe>1: synergy)	Additivity (between 1 and −1: additivity)	Additivity (between 1 and −1: additivity)	Synergy (VLoewe>1: synergy)	–
Nc1cccc2c1C(=O)N(C1CCC(=O)NC1=O)C2=O (centres unmarked) [Pomalidomide, pomalidomide]	Synergy (VLoewe>1: synergy)	Additivity (between 1 and −1: additivity)	Additivity (between 1 and −1: additivity)	Synergy (VLoewe>1: synergy)	Additivity (between 1 and −1: additivity)	Synergy (VLoewe>1: synergy)	Synergy (VLoewe>1: synergy)	–
C[C@]12C=CC(=O)C=C1CC[C@@H]1[C@@H]2[C@@H](O)C[C@@]2(C)[C@H]1CC[C@]2(O)C(=O)CO [Prednisolone, prednisolone]	–	–	–	–	–	–	–	Combination effect (Loewe Volume class) of Cpd. No. 15 with combination partner (KARPAS422): Additivity (between 1 and −1: additivity); Combination effect (Loewe Volume class) of Cpd. No. 15 with combination partner (WSUDLCL2): Antagonism (<−1: antagonistic); Combination effect (Loewe Volume class) of Cpd. No. 15 with combination partner (SUDHL-6): Synergy (VLoewe>1: synergy); Combination effect (Loewe Volume class) of Cpd. No. 15 with combination partner (SUDHL-2): Synergy (VLoewe>1: synergy); Combination effect (Loewe Volume class) of Cpd. No. 15 with combination partner (REC1): Synergy (VLoewe>1: synergy); Combination effect (Loewe Volume class) of Cpd. No. 15 with combination partner (Z138): Additivity (between 1 and −1: additivity); Combination effect (Loewe Volume class) of Cpd. No. 15 with combination partner (JVM2): Additivity (between 1 and −1: additivity); Combination effect (Loewe Volume class) of Cpd. No. 15 with combination partner (MAVER1): Synergy (VLoewe>1: synergy); Combination effect (Loewe Volume class) of Cpd. No. 15 with combination partner (JEKO1): Additivity (between 1 and −1: additivity); Combination effect (Loewe Volume class) of Cpd. No. 15 with combination partner (MINO): Additivity (between 1 and −1: additivity); Combination effect (Loewe Volume class) of Cpd. No. 15 with combination partner (GRANTA519): Synergy (VLoewe>1: synergy)
O=C(/C=C\n1cnc(-c2cc(C(F)(F)F)cc(C(F)(F)F)c2)n1)NNc1cnccn1 [Selinexor, selinexor]	Additivity (between 1 and −1: additivity)	Additivity (between 1 and −1: additivity)	Additivity (between 1 and −1: additivity)	Synergy (VLoewe>1: synergy)	Additivity (between 1 and −1: additivity)	Additivity (between 1 and −1: additivity)	Synergy (VLoewe>1: synergy)	–
